Test results: patent US9011816B2, “Fibronectin targeting contrast agent” (Case Western Reserve University, priority 2011, dated 2015)

Experiments:
[1] = test system: atherosclerotic ApoE-deficient mice; test: in vivo MR imaging in atherosclerotic ApoE-deficient mice; details: images at baseline and in fifteen minute intervals up to sixty minutes after injection, versus scrambled peptides and Magnevist
Excerpt: An atherosclerotic mice model was run with 12 week old Apoe knockout mice (B6.129P2 Apotem1UNC/J) and control mice (C57BL/J6) were purchased from Jackson Lab. Apoe knockout mice were fed with a high fat diet (60% fat) after arriving and were maintained for 6 months. Control mice were fed with a normal diet (6% fat).
FIG. 1 illustrates in vivo MR images acquired in atherosclerotic ApoE-deficient mice before and after injection of targeted CLTI-(DOTA-Gd)4 or CREKA-(DOTA-Gd)4 and non-targeted controls. Arrows point to atherosclerotic aorta and insets are enlargements of aorta. The images show a baseline image at zero minutes before an injection of contrast agent. The images progress to injection and in fifteen minute intervals up to sixty minutes. The images illustrate targeted peptides, scrambled peptides, and Magnevist.

[2] = test system: orthotopic 4T1 breast tumor; test: in vivo T1-weighted MR imaging of orthotopic 4T1 breast tumor in BALB/c mice; details: BALB/c mice bearing orthotopic 4T1 breast tumor; 0.03 mmol-Gd/kg; T1 weighted axial 2D gradient images; versus non-targeted scrambled CLT1-(DOTA-Gd)4
Procedure: A […] breast tumor model was also run. A 4T1 cell line was cultured using ATCC complete growth medium. Female Balb/c mice (4-6 weeks old) were purchased from Jackson Lab. The suspension of 4T1 cells in PBS was mixed with Matrigel matrix at 1:1 ratio. The mixture (2×10^6 cells, 100 μL) was surgically implanted in the mammary pad of a mouse when a mouse was approximately 8-10 weeks old.
FIG. 2 illustrates T1-weighted axial 2D gradient images of […] breast cancer tumor. Both CLT1-(DOTA-Gd)4 and non-targeted scrambled CLT1-(DOTA-Gd)4 were investigated in […] BALB/c mice bearing orthotopic 4T1 […] breast tumor. […] The images in row (A) of the targeted CLT1-(DOTA-Gd)4. Images in row (A) illustrate a time sequence of the targeted CLT1-(DOTA-Gd)4. Images in row (B) illustrate the time sequence for non-targeted CLT1-(DOTA-Gd)4.

[3] = test system: orthotopic human prostate tumor; test: in vivo MR imaging of orthotopic human prostate tumor in nu/nu nude athymic mice; details: nu/nu nude athymic mice bearing orthotopic human prostate tumor; 0.03 mmol-Gd/kg; versus non-targeted scrambled CLT1-(DOTA-Gd)4
Procedure: In animal tumor models […] athymic nu/nu mice (4-6 weeks old), were purchased from the Animal Resource Center (ARC) of Case Western Reserve Universitey. A suspension of PC3 with GFP cells (PC3-GFP) were harvested and suspended in a sterile phosphate-buffered saline solution. The mixture (5×10^5 cells, 25 μL) was surgically inoculated into the ventral prostate through the dorsal prostate.
FIG. 3 illustrates an enhancement ratio and a signal to noise ratio of the targeted CLT1-(DOTA-Gd)4 and non-targeted scrambled CLT1-(DOTA-Gd)4. The MRI contrast agents, targeted CLT1-(DOTA-Gd)4 and non-targeted scrambled CLT1-(DOTA-Gd)4 were administer at 0.03 mmol-Gd/kg in nu/nu nude athymic mice (n=4) bearing orthotopic human prostate tumor.

For “CLT1-PEG-(Lys)3-(DOTA-Gd)4 [CLT1-(DOTA-Gd)4]”, the “MR contrast enhancement (FIG. 1)” value [1] was “greater and longer enhancement in tumor tissue compared to non-targeted scrambled peptides and controls”, the “MR contrast enhancement in tumor tissue (FIG. 2)” value [2] was “greater and longer enhancement in tumor tissue compared to non-targeted scrambled CLT1-(DOTA-Gd)4” and the “signal intensity within the tumor tissue (enhancement ratio, signal to noise ratio; FIG. 3)” value [3] was “greater enhancement than non-target agents”.
